Test results: a melting point compilation (Tetko et al.; mined from patent text by program, amines drawn as free bases though some values may be those of a salt)

SMILES	melting point
CN1C(=O)N(C)C(=O)C(Cc2ccccc2)(Cc2ccccc2)C1=O	128 to 129 °C
CC(=N)NS(=O)(=O)C=Cc1ccc(Cl)c(Cl)c1	198 °C
N#CCC(CC#N)c1cccnc1	60 to 61 °C
CC(=O)OCC1OC(n2c(Br)nc3cc(Cl)c(Cl)cc32)C(O)C1O (configuration not stated)	85 to 95 °C
CC1(C)CCC(C)(C)c2cc(CCCC(=O)O)ccc21	99 °C
COCCOCCOCC(=O)Nc1c(I)c(N)c(I)c(C(=O)O)c1I	177 to 178 °C
C#CC1C2=C(C(=O)CCC2)c2ccc(OC(=O)C(C)(C)C)cc2N1C(=O)Oc1ccccc1 (configuration not stated)	140 to 142 °C
COC(=O)c1ccc(C(=O)NS(=O)(=O)c2ccc(CCNC(=O)Cc3ccc(OC)c(OC)c3)cc2)cn1	164 to 169 °C
CCOC(=O)COc1ccccc1C(=O)Nc1ccccc1Sc1ccc(-c2nnn[nH]2)cc1	155 to 157 °C
FC(F)(F)c1cc(CO[C@@H]2CCCN(Cc3nc4ccccc4[nH]3)[C@@H]2c2ccccc2)cc(C(F)(F)F)c1 (relative stereo)	152 to 153 °C
Cc1ccc(S(=O)(=O)Nc2cc(C3CCCC3)c([N+](=O)[O-])cc2Br)cc1	122 °C
Cc1cc2c(cc1Br)nc1n2CCC1	167 to 170 °C
CC[C@@H]1NC(=O)C[C@]1(C)O	87 to 111 °C
Cc1ccc(C)c2c1C[C@@H](O)[C@@H]2Oc1cc(C(=O)N(C)C)cc2c1nc(C)n2C (relative stereo)	134 °C
Cc1noc(NS(=O)(=O)c2ccccc2-c2ccc(CC(C)C)cc2CNC=O)c1C	78 to 83 °C
CC(=O)Oc1cc(C)cc(C(=O)O)c1C	153 to 154 °C
CC(C)Oc1cc(-n2nc(Cl)n(C(F)F)c2=O)c(Cl)cc1Cl	115 to 119 °C
CC1(CN2CCN(c3nc4ccccc4o3)CC2)Cn2cc([N+](=O)[O-])nc2O1 (configuration not stated)	228 to 230 °C
CC(C)(Cl)CC(=O)c1cc(C(C)(C)C)c(O)c(C(C)(C)C)c1	101 to 102 °C

SMILES	melting point
O=C1c2ccccc2C(c2ccc(O)cc2)(c2ccc(O)cc2)c2ccccc21	320 to 322 °C
N#Cc1c(N2CCCCC2)cc(-c2ccc(-n3cccc3)cc2)c2c1Cc1ccccc1-2	224 to 226 °C
CCOC(=O)Cc1nn(Cc2nc3ccccc3n2C)c(=O)c2ccccc12	118 °C
FC(F)(F)c1cc(-c2ccnc(Nc3ccc4c(c3)OCCO4)c2)cc(C(F)(F)F)c1	130 to 132 °C
COCN(c1cccc2cc(-c3ncnn3C)n(COC)c12)S(=O)(=O)c1cccs1	110 to 111 °C
Cc1nc(C(F)(F)F)ccc1C(=O)c1c(S(C)=O)noc1C1CC1 (configuration not stated)	96 to 97 °C
CCOC(=O)CNC(=O)CC(O)CCl (configuration not stated)	53 to 54 °C
CCN(CC)c1ccc(C2(c3c(C)n(CC)c4ccccc34)OC(=O)c3cccnc32)c(OC2CCCC2)c1 (configuration not stated)	120 to 125 °C
COc1ccc2c(c1)Sc1ccc(F)cc1C(N1CCN(CCN3CCOC3=O)CC1)C2 (configuration not stated)	177 to 179 °C
CCc1cn(C2CC(O)C(COC(c3ccccc3)(c3ccccc3)c3ccccc3)O2)c(=O)[nH]c1=O (configuration not stated)	168 to 172 °C
Cc1cn(C2CC(O)C(COC(=O)Oc3ccc([N+](=O)[O-])cc3)O2)c(=O)[nH]c1=O (configuration not stated)	145 to 146 °C
Cn1cc(C(=O)C(=O)N2CCN(c3nc4cc(C(=O)Nc5nc(C(C)(C)C)cs5)ccn4c(=O)c3/C=C/C(=O)O)CC2)nc1N	210 to 216 °C
CCC#CCOc1cc2c(cc1/C=C/C=C/C(C)=C/C(=O)O)C(C)(C)CCC2(C)C	208 to 209 °C
Cc1cc(F)ccc1NC(=O)c1cc([N+](=O)[O-])ccc1NC(=O)CF	237 to 239 °C
ClC1(Cl)C(Cl)(Cl)C1(Cl)c1ccccn1	132 to 134 °C
CC1(C)CCCC2(C)CC(O)CCC12 (configuration not stated)	53 to 54 °C
COc1cc(C(=O)c2ccccc2)c(O)c2c1C(C)(C)CCC2(C)C	85 °C
c1ccc(-c2nc3ccc(Cn4ccnc4)cc3nc2-c2ccccc2)cc1	159 °C
CCOC(=O)C(=O)Nc1cc(C(F)(F)F)cc(C(F)(F)F)c1[N+](=O)[O-]	115 °C

SMILES	melting point
Cc1cc2nc(S(=O)(=O)CC(F)(F)F)[nH]c2cc1F	164 to 166 °C
CS(C)=Nc1nccnc1Cl	106 to 108 °C
Cc1cc2[nH]c(C)nc(N3CCOCC3)c-2n1	242 to 243 °C
CCOC(=O)COc1ccc(CC2SC(=O)NC2=O)cc1 (configuration not stated)	105 to 106 °C
O=C(c1ccc([N+](=O)[O-])cc1)N1Cc2ccccc2C(c2ccccc2Cl)c2ccccc21 (configuration not stated)	178 to 181 °C
N#CC(OC1OC2C(Br)C3CC1C2C3)c1cccc(Oc2ccccc2)c1 (configuration not stated)	65 °C
COc1ccc(N2CCN(c3ccc(-n4cnn(C(C)C)c4=O)cc3)CC2)cc1	210 °C
O=C1c2cc(F)ccc2CCC1CN1CCC2(CC1)C(=O)NCN2c1ccccc1 (configuration not stated)	162 to 165 °C
CCCC=Cc1c(C(C)C)nc(C(C)C)c(CO)c1-c1ccccc1C	76 to 79 °C
Cc1nc(Nc2nc(N)nc(-c3ccccc3)c2-c2ccc(=O)n(C(C)C)n2)sc1C	256 to 258 °C
Cc1nn(C)c(C(=O)O)c1-c1ccc(Cl)c(C(=O)NCC23CC4CC(CC(C4)C2)C3)c1	207 °C
CCCCc1c2c(nc3cc(F)cc(F)c13)-c1cc3c(c(=O)n1C2)COC(=O)CC3(O)CC (configuration not stated)	190 °C
COc1cc(C)c([N+](=O)[O-])c(C)c1	50 to 52 °C
CNC(=O)n1nc(Oc2ncc(C(F)(F)F)cc2Cl)c(Cl)c1C	81 to 83 °C
COC(=O)CCC(=O)OCc1cc(CCCCCOc2c(Cl)cc(C3=NCCO3)cc2Cl)on1	39 to 41 °C
O=C(c1ccc(OCCN2CCCCC2)cc1)c1c(-c2ccc(O)cc2)ccc2ccccc12	167 to 170 °C
CCn1cc(C(=O)O)c(=O)c2cc(F)c(N3CCNC(c4cc(C)cs4)C3)cc21 (configuration not stated)	230 °C
Cc1ccc(CN2CCN(C3=NC4(C=CC(=O)C=C4)C(c4ccc(O)cc4)=C3)CC2)cc1	140 °C
NS(=O)(=O)c1ccc(-n2nccc2-c2ccc(Cl)cc2)cc1	185 to 187 °C

Next, values leading:

melting point	SMILES
187 to 189 °C	COc1ccc(OC2COc3ccc(O)cc3C2O)cc1 (configuration not stated)
173 °C	O=C(/C=C/c1cccc(S(=O)(=O)N2CCN(c3cccc(C(F)(F)F)c3)CC2)c1)NO
160 °C	O=Cc1ccc2c(c1)COC2=O
101 to 103 °C	CCOC(=O)N(O)Cc1cccc(Nc2ccccc2C(=O)OC)c1C
98 to 98.6 °C	Nc1cccc(Oc2cc(Oc3cccc(N)c3)cc(C(F)(F)F)c2)c1
48 to 50 °C	C=CCc1ccc2oc(C(=O)c3ccc(OC)cc3)c(C)c2c1O
55 to 56 °C	COC(=O)c1cccc(-c2ccoc2C(F)F)c1
96 to 97 °C	CCNc1cccnc1N1CCN(C(=O)c2ccc(C(=O)OC)cc2)CC1
163 °C	ClCc1cn2cccc(OCc3ccccc3)c2n1
245 to 247 °C	CCN(c1ccc(C(=O)Nc2cn3cc(Cl)ccc3n2)cc1)S(C)(=O)=O
235 °C	O=C(Nc1nc(C(F)(F)F)co1)C1c2ccccc2Oc2ccc(Cl)cc21 (racemic)
228 to 232 °C	NNc1ccnc2c(NC(=O)c3c(Cl)cccc3Cl)cc(C(F)(F)F)cc12
183 to 185 °C	N#Cc1ccc2oc(CCc3ccc(C(=O)Nc4cnccn4)cc3)cc2c1
108 to 110 °C	CCOC(=O)c1cccn2cc(C(Cl)Cl)nc12
115 to 117 °C	CC1(C)CC(=NO)c2cc(Br)ccc21
162 °C	OC1Cc2ccc(F)cc2Sc2ccc(I)cc21 (configuration not stated)
64 to 69 °C	ON=Cc1ccc(Cl)c(Cl)c1OCc1ccccc1
105 to 115 °C	Cc1cccc(C(=O)Nc2ccc3c(c2)CC(N(C)Cc2ccccn2)C3)c1-c1ccc(C(F)(F)F)cc1 (configuration not stated)
131 to 132 °C	CCOC(=O)/C=C/c1cn(-c2ccc(C(F)(F)F)cn2)nc1C
135 °C	CC(C)(C)c1cccc(S(=O)(=O)n2c(CCCCC(=O)O)cc3cc(C(F)(F)F)ccc32)c1

melting point	SMILES
138 to 140 °C	CCN(CC(OC)OC)C(=O)Nc1ccc(C(O)(C(F)(F)F)C(F)(F)F)cc1
101 to 103 °C	CC(C)(Oc1ccc(Cl)cc1)C(=O)Cn1cncn1
136 to 138 °C	O=C(c1cccc(OCc2ccccc2)c1)C(CCc1nnn[nH]1)c1ccccc1 (configuration not stated)
158 to 159 °C	COc1cccc(OCCO)c1-c1ccc(C[C@H](NC(=O)c2c(Cl)cccc2Cl)C(=O)O)cc1
146 to 148 °C	CC(Oc1ccc(Oc2cnc3cc(Cl)ccc3n2)cc1)C(=O)Nc1ccc(OC(F)(F)C(F)F)cc1 (configuration not stated)
95 to 96 °C	CCOP(=O)(OCC)C(C)(C)NC(=O)c1cccc([N+](=O)[O-])c1
30 °C	Cc1ccc(S(=O)(=O)OCCc2cccs2)cc1
109 to 110 °C	CCOC(=O)CCc1cn(Cc2ccc(OC)c(OCc3nc(-c4ccccc4)oc3C)c2)nc1OCC
174 to 175 °C	COc1ccn2nc(-c3ccccc3F)c(-c3ccc(=O)n(C(C)C)n3)c2c1
231 to 235 °C	COC(=O)Nc1cn2cc(S(=O)c3ccccn3)ccc2n1 (configuration not stated)
116 to 118 °C	Cc1cccc(CCC(CO)n2cnc(C(N)=O)c2)c1 (configuration not stated)
94 to 95 °C	CC(C)(C)OC(=O)c1ccc(NC#N)cc1
206 °C	CCOC(=O)C1C(=O)Nc2ccccc2SC1c1ccc(Cl)cc1 (configuration not stated)
155 to 157 °C	CCN1Cc2cccnc2N(c2cccc(C(F)(F)F)c2)C1=O
177 to 180 °C	COC(=O)c1cn(C2=CC(C)(C)Oc3ccc(C#N)cc32)c2ccccc12
108 °C	COc1ccc(N=C(Cl)c2cccc([N+](=O)[O-])c2)cc1
168 to 170 °C	CN(C)CCC(c1ccc(C(=O)NN)cc1)c1ncc[nH]1 (configuration not stated)
138 to 139 °C	COC(=O)c1ccc([N+](=O)[O-])c(OCC(N)=O)c1
205 to 208 °C	CS(=O)(=O)c1ccc(Oc2ccc3[nH]c(C4=NCC(CC(=O)O)S4)cc3c2)cn1 (configuration not stated)
105 °C	CCc1cccc(NC(=O)NCC(=O)N(CC(=O)N(C)c2ccccc2)c2ccccc2)c1
